This note sets out measurements from PubChem BioAssay AID1053182 (The Scripps Research Institute Molecular Screening Center, 2014).

Calls of active or inactive are those of the source. How the calls were made is not given here.

The target of the test is Trace amine-associated receptor 1 (Homo sapiens) (UniProt Q96RJ0). Description: agonism at human TAAR1, counter-screen – cell-based, fluorescence, MedChem round 2, counter-screen for TAAR1 antagonist project, SAR follow-up (AID 1053182). As to conditions: TAAR1-expressing cells, cAMP fluorescence agonist mode.
Chain of Trace amine-associated receptor 1 (Homo sapiens) (Q96RJ0 whole entry, looked up, the tested form may be a part): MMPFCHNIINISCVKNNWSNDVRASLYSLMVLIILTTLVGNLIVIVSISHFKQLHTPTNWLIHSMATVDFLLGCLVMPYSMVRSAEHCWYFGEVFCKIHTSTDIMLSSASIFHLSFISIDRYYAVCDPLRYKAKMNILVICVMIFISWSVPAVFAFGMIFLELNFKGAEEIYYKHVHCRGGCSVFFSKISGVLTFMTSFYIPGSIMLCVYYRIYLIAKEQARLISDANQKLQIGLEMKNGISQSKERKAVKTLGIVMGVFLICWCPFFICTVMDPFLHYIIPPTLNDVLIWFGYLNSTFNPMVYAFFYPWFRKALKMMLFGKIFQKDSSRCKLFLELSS
As to `N#Cc1c(C(F)(F)F)cc(-c2ccc(Cl)cc2)nc1SCC(=O)N1CCCC1`, the EC50 was > 29900 nM (inactive). In the case of `O=C(CCN1CCC(c2ccccc2)C1)c1ccccc1` (configuration not stated), the 50% effective concentration (EC50) is 100 nM. Next, `N#Cc1c(C(F)(F)F)cc(-c2ccc(Cl)cc2)nc1SCC(=O)N1CCCCCC1`: > 29900 nM (inactive). For `N#Cc1c(C(F)(F)F)cc(-c2ccc(Cl)cc2)nc1SCC(=O)Nc1ncccn1` the value was > 29900 nM (inactive); for `COc1cc(C(=O)CCN2CCC(c3ccccc3)C2)cc(OC)c1OC` (configuration not stated), 122 nM. For `CC(CN1CCCC1Cc1ccccc1)C(=O)c1ccc2c(c1)OCCO2` (configuration not stated) the value was 245 nM; for `Cc1ccc(C(=O)CCN2CCC(c3ccccc3)C2)cc1` (configuration not stated), 282 nM.
